Results as given in patent US20130165428A1, “XANTHINE DERIVATIVES, THE PREPARATION THEREOF AND THEIR USE AS PHARMACEUTICAL COMPOSITIONS” (Boehringer Ingelheim Pharma GmbH & Co. KG, priority 2001, published 2013).
Like-named read-outs stand apart in the source and are kept apart here.

Tests used:
DPP-IV = target: T1, DPP-IV (Homo sapiens, UniProt P27487); assay: DPP-IV assay with extract of Caco-2 cells as DPP IV source; format: biochemical; conditions: read-out: DPP IV inhibition IC50
T1 construct: an extract of the human colon carcinoma cell line Caco-2 is used as the DPP IV source; host or cells: Caco-2 (differentiated to induce DPP-IV expression), Nonidet-P40 solubilised extract
Method: This cell line was obtained from the American Type Culture Collection (ATCC HTB 37). […] The cell extract was obtained from cells solubilised in a buffer (10 mM Tris HCl, 0.15 M NaCl, 0.04 t.i.u. aprotinin, 0.5% Nonidet-P40, pH 8.0) by centrifugation at 35,000 g for 30 minutes at 4° C. (to remove cell debris).
The DPP-IV assay was carried out as follows:
50 μl of substrate solution (AFC; AFC is amido-4-trifluoromethylcoumarin), final concentration 100 μM, were placed in black microtitre plates. 20 μl of assay buffer (final concentrations 50 mM Tris HCl pH 7.8, 50 mM NaCl, 1% DMSO) was pipetted in. The reaction was started by the addition of 30 μl of solubilised Caco-2 protein (final concentration 0.14 μg of protein per well). The test substances under investigation were typically added prediluted to 20 μl, while the volume of assay buffer was then reduced accordingly. The reaction was carried out at ambient temperature, the incubation period was 60 minutes. […] Dummy values (corresponding to 0% activity) were obtained in mixtures with no Caco-2 protein (volume replaced by assay buffer), control values (corresponding to 100% activity) were obtained in mixtures without any added substance.

rats = assay: Tolerability after oral administration in rats; format: in vivo; conditions: oral administration of 30 mg/kg
[1] = extract of human colon carcinoma cell line Caco-2 as DPP IV source, substrate AFC 100 μM, 60 minutes, ambient temperature

T1 sequence (P27487 whole entry): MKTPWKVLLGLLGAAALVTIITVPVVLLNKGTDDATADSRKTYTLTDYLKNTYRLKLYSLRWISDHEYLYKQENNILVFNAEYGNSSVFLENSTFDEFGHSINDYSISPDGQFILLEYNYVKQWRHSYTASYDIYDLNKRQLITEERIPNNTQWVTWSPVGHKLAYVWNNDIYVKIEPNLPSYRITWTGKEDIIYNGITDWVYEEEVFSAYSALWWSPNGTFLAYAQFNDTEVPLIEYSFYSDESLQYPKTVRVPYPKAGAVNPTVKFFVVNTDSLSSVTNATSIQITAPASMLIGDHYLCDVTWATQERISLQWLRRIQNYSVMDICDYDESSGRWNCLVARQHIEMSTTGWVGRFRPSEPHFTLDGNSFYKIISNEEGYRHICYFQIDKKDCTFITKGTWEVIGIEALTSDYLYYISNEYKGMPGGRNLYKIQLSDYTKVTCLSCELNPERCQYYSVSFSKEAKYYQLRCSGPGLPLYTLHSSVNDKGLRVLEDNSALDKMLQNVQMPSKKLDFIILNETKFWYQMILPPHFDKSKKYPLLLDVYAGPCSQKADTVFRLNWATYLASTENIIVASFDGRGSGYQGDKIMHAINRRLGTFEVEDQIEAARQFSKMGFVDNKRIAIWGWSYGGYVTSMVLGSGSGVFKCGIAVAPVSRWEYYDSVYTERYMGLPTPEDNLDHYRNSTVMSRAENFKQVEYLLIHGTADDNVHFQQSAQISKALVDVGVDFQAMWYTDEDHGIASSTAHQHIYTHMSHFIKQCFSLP

Molecule CC(C)=CCn1c(N2CCCC(N)C2)nc2c1c(=O)n(CCc1ccccn1)c(=O)n2C (stereo not drawn) [1(60), 1-[2-(pyridin-2-yl)-ethyl]-3-methyl-7-(3-methyl-2-buten-1-yl)-8-(3-amino-piperidin-1-yl)-xanthine] has an IC50 (DPP-IV; [1]) of 57 nM and a melting point of 117 to 120 °C.
Work on CC(C)=CCn1c(N2CCC[C@H](N)C2)nc2c1c(=O)n(CCc1cccc(O)c1)c(=O)n2C [2(22), 1-[2-(3-hydroxy-phenyl)-ethyl]-3-methyl-7-(3-methyl-2-buten-1-yl)-8-((S)-3-amino-piperidin-1-yl)-xanthine] yielded an IC50 (DPP-IV; [1]) of 66 nM and a melting point of 168 to 170 °C.
In the case of CC(C)=CCn1c(N(C)CC(N)C(=O)N(C)C)nc2c1c(=O)n(C)c(=O)n2C (stereo not drawn) [2(131), 1,3-dimethyl-7-(3-methyl-2-buten-1-yl)-8-[N-(2-amino-3-dimethylamino-3-oxo-propyl)-N-methyl-amino]-xanthine×trifluoroacetic acid], the IC50 (DPP-IV) is reported as 127 nM.
CC(C)=CCn1c(N2CCCC(N)C2)nc2c1c(=O)n(CC(=O)c1ccccc1N)c(=O)n2C (stereo not drawn) [2(136), 1-[2-(2-amino-phenyl)-2-oxo-ethyl]-3-methyl-7-(3-methyl-2-buten-1-yl)-8-(3-amino-piperidin-1-yl)-xanthine] showed an IC50 (DPP-IV; [1]) of 3 nM.
For Cn1c(=O)c2c(nc(N3CCCC(N)C3)n2Cc2ccccc2)n(C)c1=O (stereo not drawn) [Example 1(2), 1,3-dimethyl-7-benzyl-8-(3-amino-piperidin-1-yl)-xanthine], the “toxic side effects / tolerability” value (rats) was “no toxic side effects could be detected”.
Molecule Cn1c(=O)c2c(nc(N3CCCC(N)C3)n2Cc2ccccc2)n(CC(=O)O)c1=O (stereo not drawn) [Example 6, 1-methyl-3-carboxymethyl-7-benzyl-8-(3-amino-piperidin-1-yl)-xanthine] has an IC50 (DPP-IV; [1]) of 55 nM and a melting point of 212 to 215 °C.
